Results taken from patent US8815909B2, “Diaminocyclohexane compounds and uses thereof” (Bristol-Myers Squibb Company, priority 2011, dated 2014).
pEC50: −log10 of the molar value. Counter-ions that a name gives are not always drawn.

target: T1, human Y4 receptor (Homo sapiens, UniProt P50391); experiment: NPY4 cAMP HTRF Agonist Assay (inhibitory cAMP assay, Gi activation by Y4 agonism); format: cell-based; details: TABLE 2, R2 is Phenyl-CN; read-out: hY4 CAMP EC50
T1 construct: expressed in transfected cells
Outline: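 CHO cells stably expressing human Y4, 5000/well, exposed to compound with forskolin and IBMX in PBS for 30 min at room temperature. Gi-mediated inhibition of cAMP then measured by HTRF after 1 h with d2-conjugate and anti-cAMP cryptate.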

T1 sequence (P50391 whole entry): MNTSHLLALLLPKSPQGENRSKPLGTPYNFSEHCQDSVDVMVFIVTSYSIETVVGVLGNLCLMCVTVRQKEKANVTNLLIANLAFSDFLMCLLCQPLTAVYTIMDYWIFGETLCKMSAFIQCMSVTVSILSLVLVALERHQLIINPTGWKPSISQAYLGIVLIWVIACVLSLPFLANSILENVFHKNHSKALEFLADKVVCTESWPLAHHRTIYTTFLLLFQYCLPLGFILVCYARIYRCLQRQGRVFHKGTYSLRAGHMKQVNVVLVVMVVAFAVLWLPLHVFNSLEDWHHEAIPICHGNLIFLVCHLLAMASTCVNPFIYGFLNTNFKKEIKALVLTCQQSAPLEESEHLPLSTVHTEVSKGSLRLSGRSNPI

| SMILES | pEC50 |
| --- | --- |
| N#Cc1ccc(N2C[C@@H]3C[C@H](N[C@@H]4CCCC[C@H]4Nc4ncc(-c5cccc(C(N)=O)c5)o4)[C@H]2C3)cc1 [Example 264] | 8.15 |
| N#Cc1ccc(N2C[C@@H]3C[C@H](N[C@@H]4CCCC[C@H]4Nc4ncc(-c5ccccc5OC(F)(F)F)o4)[C@H]2C3)cc1 [Example 224] | 8.70 |

Further lines, results first:

| pEC50 | SMILES |
| --- | --- |
| 6.54 | N#Cc1ccc(N2CCC[C@H](N[C@@H]3CCCC[C@H]3Nc3cc(-c4ccccc4OC(F)(F)F)ccn3)C2)cc1 [Example 241] |
| 6.83 | COC(=O)c1cccn1-c1ccnc(N[C@@H]2CCCC[C@H]2N[C@H]2CCCN(c3ccc(C#N)cc3)C2)c1 [Example 204] |
| 6.34 | Cc1ccc(-c2ccnc(N[C@@H]3CCCC[C@H]3N[C@H]3CCCN(c4ccc(C#N)cc4)C3)c2)cc1 [Example 271] |
| 7.80 | N#Cc1ccc(N2C[C@@H]3C[C@H](N[C@@H]4CCCC[C@H]4Nc4cc(-c5ccc(OC(F)F)cc5)ccn4)[C@H]2C3)cc1 [Example 227] |
| 6.74 | N#Cc1ccc(N2CCC[C@H](N[C@@H]3CCCC[C@H]3Nc3cc(-c4cccc5c4NC(=O)C5)ccn3)C2)cc1 [Example 213] |
| 6.42 | C=Cc1ccnc(N[C@@H]2CCCC[C@H]2N[C@H]2CCCN(c3ccc(C#N)cc3)C2)c1 [Example 246] |

same assay, conditions: TABLE 3, R2 is Phenyl-NO2; read-out: hY4 CAMP EC50

| pEC50 | SMILES |
| --- | --- |
| 6.79 | NC(=O)c1cccc(-c2cc(N[C@@H]3CCCC[C@H]3N[C@H]3C[C@@H]4C[C@H]3N(c3ccc([N+](=O)[O-])cc3)C4)ncn2)c1 [Example 297] |

same assay, conditions: TABLE 5, R2 is Pyridinyl-CF3; read-out: hY4 CAMP EC50

| pEC50 | SMILES |
| --- | --- |
| 6.65 | FC(F)(F)Oc1ccc(-c2cnc(N[C@@H]3CCCC[C@H]3N[C@H]3C[C@@H]4C[C@H]3N(c3ccc(C(F)(F)F)cn3)C4)o2)cc1 [Example 338] |
| 6.74 | NC(=O)c1cccc(-c2ccnc(N[C@@H]3CCCC[C@H]3N[C@H]3C[C@@H]4C[C@H]3N(c3ccc(C(F)(F)F)nc3)C4)c2)c1 [Example 327] |
| 7.59 | NC(=O)c1cccc(-c2ccnc(N[C@@H]3CCCC[C@H]3N[C@H]3C[C@@H]4C[C@H]3N(c3ccc(C(F)(F)F)cn3)C4)c2)c1 [Example 337] |
| 7.62 | C[C@]1(N[C@@H]2CCCC[C@H]2Nc2cc(-c3cccc(C(N)=O)c3)ccn2)CCCN(c2ccc(C(F)(F)F)cn2)C1 [Example 332] |
| 7.02 | CC(C)(C)OC(=O)Nc1cccc(-c2cnc(N[C@@H]3CCCC[C@H]3N[C@H]3CCCN(c4ccc(C(F)(F)F)nc4)C3)o2)c1 [Example 333] |

same assay, conditions: TABLE 7, R2 is Pyridinyl-oxadiazole-CH3; read-out: hY4 CAMP EC50

| pEC50 | SMILES |
| --- | --- |
| 9.00 | Cc1nc(-c2ccc(N3CCC[C@H](N[C@@H]4CCCC[C@H]4Nc4cc(-c5cccc(C(N)=O)c5)ccn4)C3)nc2)no1 [Example 393] |

same assay, conditions: human Y4 receptor, cAMP; read-out: hY4 CAMP EC50

| SMILES | pEC50 |
| --- | --- |
| N#Cc1cnc(N2CCC[C@H](N[C@@H]3CCCC[C@H]3Nc3ncc(-c4cccc(C(N)=O)c4)o3)C2)cn1 [Example 478] | 7.60 |
| NC(=O)c1cccc(-c2cnc(N[C@@H]3CCCC[C@H]3N[C@H]3CCCN(c4ccc(F)c(F)c4)C3)o2)c1 [Example 454] | 8.52 |
| NC(=O)c1cccc(-c2cnc(N[C@@H]3CCCC[C@H]3N[C@H]3C[C@@H]4C[C@H]3N(c3cnc(C(F)(F)F)nc3)C4)o2)c1 [Example 407] | 6.48 |
| CNC(=O)Nc1cccc(-c2cnc(N[C@@H]3CCCC[C@H]3N[C@H]3CCCN(c4cnc(C(F)(F)F)nc4)C3)o2)c1 [Example 428] | 8.40 |
| CNC(=O)c1cccc(-c2cnc(N[C@@H]3CCCC[C@H]3N[C@H]3CCCN(c4cnc(C(F)(F)F)nc4)C3)o2)c1 [Example 409] | 8.40 |
| CS(=O)(=O)Nc1cccc(-c2cnc(N[C@@H]3CCCC[C@H]3N[C@H]3CCCN(c4cnc(C(F)(F)F)nc4)C3)o2)c1 [Example 414] | 8.30 |
| COC(=O)Nc1cccc(-c2cnc(N[C@@H]3CCCC[C@H]3N[C@H]3CCCN(c4ccc5nc(C)nn5c4)C3)o2)c1 [Example 490] | 9.00 |

The next lines start with the values.

| pEC50 | SMILES |
| --- | --- |
| 8.40 | COC(=O)Nc1cccc(-c2ccnc(N[C@@H]3CCCC[C@H]3N[C@H]3CCCN(c4ccc(-c5cccnc5)cc4)C3)c2)c1 [Example 514] |
| 7.19 | Cc1nnc(-c2ccc(N3CCCC(N[C@@H]4CCCC[C@H]4Nc4cc(-c5cccnc5)ccn4)C3)cc2)o1 (stereo partly drawn) [Example 345] |
| 6.66 | Cc1nnc(-c2ccc(N3CCC[C@H](N[C@@H]4CCCC[C@H]4Nc4cc(-c5ccc(OC(F)F)cc5)ccn4)C3)cc2)o1 [Example 375] |
| 7.59 | Cn1cnc(-c2ccc(N3CCC[C@H](N[C@@H]4CCCC[C@H]4Nc4cc(-c5ccc(F)c(F)c5)ccn4)C3)cc2)n1 [Example 457] |

same assay, conditions: human Y4 stable CHO clonal cells, forskolin + IBMX; read-out: NPY4 cAMP HTRF Agonist Assay EC50

| SMILES | pEC50 |
| --- | --- |
| N#Cc1cnc(N2CCC[C@H](N[C@@H]3CCCC[C@H]3Nc3ncc(-c4ccc(OC(F)(F)F)cc4)o3)C2)nc1 [Example 81, 2-((S)-3-((1R,2R)-2-(5-(4-(Trifluoromethoxy)phenyl)oxazol-2-ylamino)cyclohexylamino)piperidin-1-yl)pyrimidine-5-carbonitrile bis-trifluoroacetate] | 7.39 |
| c1ccc(-c2cnc(N[C@@H]3CCCC[C@H]3N[C@H]3CCCN(c4ccc(-n5cncn5)cc4)C3)o2)cc1 [Example 90, (1R,2R)—N1-((S)-1-(4-(1H-1,2,4-Triazol-1-yl)phenyl)piperidin-3-yl)-N2-(5-phenyloxazol-2-yl)cyclohexane-1,2-diamine bis-trifluoroacetate] | 6.88 |
| C[C@]1(N[C@@H]2CCCC[C@H]2Nc2ncc(-c3ccc(OC(F)(F)F)cc3)o2)CCCN(c2ccc([N+](=O)[O-])cc2)C1 [Example 96, (1R,2R)—N1-((S)-3-Methyl-1-(4-nitrophenyl)piperidin-3-yl)-N2-(5-(4-(trifluoromethoxy)phenyl)oxazol-2-yl)cyclohexane-1,2-diamine bis-trifluoroacetate] | 9.00 |
| CCOC(=O)Nc1cccc(-c2cnc(N[C@@H]3CCCC[C@H]3N[C@H]3CCCN(c4ccc(C(F)(F)F)nc4)C3)o2)c1 [Example 102] | 9.40 |
| O=[N+]([O-])c1ccc(N2CCC[C@H](N[C@@H]3CCCC[C@H]3Nc3ncc(-c4ccc(OC(F)(F)F)c(F)c4)o3)C2)cc1 [Example 8, (1R,2R)—N1-(5-(3-Fluoro-4-(trifluoromethoxy)phenyl)oxazol-2-yl)-N2-((S)-1-(4-nitrophenyl)piperidin-3-yl)cyclohexane-1,2-diamine] | 7.80 |
| N#Cc1ccc(N2CCC[C@H](N[C@@H]3CCCC[C@H]3Nc3nccc(-c4ccccc4)n3)C2)cc1F [Example 47, 2-Fluoro-4-((S)-3-((1R,2R)-2-(4-phenylpyrimidin-2-ylamino)cyclohexylamino)piperidin-1-yl)benzonitrile bis-trifluoroacetate] | 7.47 |

Further lines, results first:

| pEC50 | SMILES |
| --- | --- |
| 7.22 | O=[N+]([O-])c1ccc(N2CCC[C@H](N[C@@H]3CCCC[C@H]3Nc3nnc(-c4ccccc4)o3)C2)cc1 [Example 27, (1R,2R)—N1-((S)-1-(4-Nitrophenyl)piperidin-3-yl)-N2-(5-phenyl-1,3,4-oxadiazol-2-yl)cyclohexane-1,2-diamine] |
| 6.10 | FC(F)(F)Oc1ccc(-c2cnc(N[C@@H]3CCCC[C@H]3N[C@H]3CCCN(c4ccc(-n5ccc(C(F)(F)F)n5)cc4)C3)o2)cc1 [Example 70, (1R,2R)—N1-(5-(4-(Trifluoromethoxy)phenyl)oxazol-2-yl)-N2-((S)-1-(4-(3-(trifluoromethyl)-1H-pyrazol-1-yl)phenyl)piperidin-3-yl)cyclohexane-1,2-diamine bis-trifluoroacetate] |
| 5.93 | COc1ccc(-c2ccnc(N[C@@H]3CCCC[C@H]3N[C@H]3CCCN(c4ccc(C#N)cc4)C3)n2)cc1 [Example 58, 4-((S)-3-((1R,2R)-2-(4-(4-Methoxyphenyl)pyrimidin-2-ylamino)cyclohexylamino)piperidin-1-yl)benzonitrile trifluoroacetate] |
| 7.74 | N#Cc1ccc(N2CCC[C@H](N[C@@H]3CCCC[C@H]3Nc3cc(-c4ccc(OC(F)F)cc4)ccn3)C2)cc1 [Example 43, 4-((S)-3-((1R,2R)-2-(4-(4-(Difluoromethoxy)phenyl)pyridin-2-ylamino)cyclohexylamino)piperidin-1-yl)benzonitrile tris-trifluoroacetate] |
| 6.57 | N#Cc1ccc(N2CCC[C@H](N[C@@H]3CCCC[C@H]3Nc3nnc(-c4ccccc4)o3)C2)cc1 [Example 54, 4-((S)-3-((1R,2R)-2-(5-Phenyl-1,3,4-oxadiazol-2-ylamino)cyclohexylamino)piperidin-1-yl)benzonitrile trifluoroacetate] |
| 8.00 | O=[N+]([O-])c1ccc(N2CCC[C@H](N[C@@H]3CCCC[C@H]3Nc3ncc(-c4ccc(F)cc4F)o3)C2)cc1 [Example 20, (1R,2R)—N1-(5-(2,4-Difluorophenyl)oxazol-2-yl)-N2-((S)-1-(4-nitrophenyl)piperidin-3-yl)cyclohexane-1,2-diamine] |

same assay, conditions: second TABLE 1, R2 is Phenyl-CF3; read-out: hY4 CAMP EC50

| SMILES | pEC50 |
| --- | --- |
| OCC#Cc1ccnc(N[C@@H]2CCCC[C@H]2N[C@H]2CCCN(c3ccc(C(F)(F)F)cc3)C2)c1 [Example 163] | 7.13 |
| FC(F)(F)Oc1ccccc1-c1cnc(N[C@@H]2CCCC[C@H]2N[C@H]2CCCN(c3ccc(C(F)(F)F)cc3)C2)o1 [Example 197] | 7.92 |
| NC(=O)c1cccc(-c2cnc(N[C@@H]3CCCC[C@H]3N[C@H]3C[C@@H]4C[C@H]3N(c3ccc(C(F)(F)F)cc3)C4)o2)c1 [Example 178] | 8.70 |

Now from value to compound:

| pEC50 | SMILES |
| --- | --- |
| 9.00 | CC(=O)NCc1cccc(-c2ccnc(N[C@@H]3CCCC[C@H]3N[C@H]3CCCN(c4ccc(C(F)(F)F)cc4)C3)c2)c1 [Example 140] |
| 8.22 | C[C@H](O)c1cccc(-c2ccnc(N[C@@H]3CCCC[C@H]3N[C@H]3CCCN(c4ccc(C(F)(F)F)cc4)C3)c2)c1 [Example 167] |
| 7.32 | FC(F)(F)c1ccc(N2CCC[C@H](N[C@@H]3CCCC[C@H]3Nc3cc4ccccc4cn3)C2)cc1 [Example 195] |
| 6.11 | FC(F)(F)Oc1cccc(-c2cnc(N[C@@H]3CCCC[C@H]3N[C@H]3CCCN(c4ccc(C(F)(F)F)cc4)C3)nc2)c1 [Example 177] |
